The NIST ThermoML archive (doi:10.1021/je801009z)
Where “and” joins values, the source holds several entries; their conditions need not be identical. Equal entries are not always repeated. ± gives the expanded uncertainty stated by the source.

Conditions: Vibrating tube method

In the case of `FCC(F)(F)F` [1,1,1,2-tetrafluoroethane], the mass density (288 K, 19600 kPa, Liquid) is reported as 1290 ± 120 kg/m3, the mass density (298 K, 19600 kPa, Liquid) is reported as 1270 ± 60 kg/m3 and the mass density (308 K, 5000 kPa, Liquid) is reported as 1150 ± 100 kg/m3. The mass density (308 K, 10100 kPa, Liquid) was 1180 ± 60 kg/m3, the mass density (308 K, 15400 kPa, Liquid) was 1210 ± 10 kg/m3 and the mass density (308 K, 19600 kPa, Liquid) was 1240 ± 10 kg/m3 and 1240 ± 60 kg/m3. It also gave a mass density (308 K, 23700 kPa, Liquid) of 1260 ± 100 kg/m3, a mass density (318 K, 19600 kPa, Liquid) of 1210 ± 60 kg/m3 and a mass density (328 K, 19600 kPa, Liquid) of 1180 ± 120 kg/m3.
For `O=C=O` [carbon dioxide], the mass density (308 K, 20000 kPa, Fluid (supercritical or subcritical phases)) was 870 ± 120 kg/m3, the mass density (313 K, 10000 kPa, Fluid (supercritical or subcritical phases)) was 570 kg/m3 and the mass density (313 K, 15000 kPa, Fluid (supercritical or subcritical phases)) was 780 ± 20 kg/m3. The mass density (313 K, 20000 kPa, Fluid (supercritical or subcritical phases)) was 850 ± 80 kg/m3 and 830 ± 60 kg/m3, the mass density (313 K, 25000 kPa, Fluid (supercritical or subcritical phases)) was 890 ± 180 kg/m3 and the mass density (313 K, 36000 kPa, Fluid (supercritical or subcritical phases)) was 900 ± 200 kg/m3. For the same compound, the mass density (318 K, 20000 kPa, Fluid (supercritical or subcritical phases)) was 820 ± 20 kg/m3, the mass density (323 K, 20000 kPa, Fluid (supercritical or subcritical phases)) was 790 ± 20 kg/m3 and the mass density (328 K, 20000 kPa, Fluid (supercritical or subcritical phases)) was 760 ± 80 kg/m3. For the same compound, the mass density (333 K, 20000 kPa, Fluid (supercritical or subcritical phases)) was 730 ± 140 kg/m3.
